# Measurements taken from patent publication US20230321053A1, “(1R,3S)-3-((5-CYANO-4-PHENYLTHIAZOL-2-YL)CARBAMOYL)CYCLOPENTANE-1-CARBOXYLIC ACID AND DERIVATIVES THEREOF FOR USE IN THE TREATMENT OF AIRWAY DISEASES” (PALOBIOFARMA, S.L., priority 2020, published 2023).
# B1: mepolizumab: anti-IL-5 monoclonal antibody (antibody, chains of the INN, looked up, V domains shown)
# VH: QVTLRESGPALVKPTQTLTLTCTVSGFSLTSYSVHWVRQPPGKGLEWLGVIWASGGTDYNSALMSRLSISKDTSRNQVVLTMTNMDPVDTATYYCARDPPSSLLRLDYWGRGTPVTVSS
# VL: DIVMTQSPDSLAVSLGERATINCKSSQSLLNSGNQKNYLAWYQQKPGQPPKLLIYGASTRESGVPDRFSGSGSGTDFTLTISSLQAEDVAVYYCQNVHSFPFTFGGGTKLEIK
# Tests used:
# Brown Norway rats = conditions: orally administered, antigen induced; cited from earlier work
# TNFalpha = conditions: rat; cited from earlier work
# [1] = tested on: chronic obstructive pulmonary disease; conditions: 16-week trial; cited from earlier work
# COPD patients [2] = conditions: baseline sputum eosinophils ≥3%; cited from earlier work
# [3] = tested on: patients with mild-to-moderate persistent atopic asthma; experiment: Peripheral blood eosinophil count, phase II placebo-controlled study; assay type: in vivo, human; conditions: 10 mg once daily
# Text: Eosinophil count. Peripheral blood eosinophil counts were obtained from standard complete blood counts done at every centre participating in the study. For example, by using standardized methods on a Beckman Coulter LH series analyzer (Beckman Coulter Ltd, Brea, CA, USA), Negewo, N. A. et al, Peripheral blood eosinophils: a surrogate marker for airway eosinophilia in stable COPD, Int J Chron Obstruct Pulmon Dis. 2016; 11: 1495-1504).
# (§1) Eosinophils in S.I units (10^9/L) will be converted in cel/µL with the conversion factor 1 × 10^9/L =1000 cel/µL. The primary efficacy analysis on Per Protocol Population was stratified into 2 subgroups based on Eosinophils (cel/ µL) value at visit V1 from Hematology (Low < 300 cel/ µL, and High >=300 cel/ µL). Trough FEV1 on day 16 (+4-day leeway) was summarized by treatment arm and Eosinophils value at visit V1. A mixed model with FEV1 measurements on day 16 (23 h 15 min and 23 h 45 min post-dose), containing treatment arm and Eosinophils strata as fixed effects, site as random effect with baseline FEV1 on visit V5 as a covariate was fitted.
# (§2) The present trial is an exploratory study aiming at evaluating the safety, tolerability, and efficacy of a 15-day, once daily administration of 10 mg Compound (I) in subjects with persistent mild-to-moderate atopic asthma. In terms of exploratory efficacy, the primary purpose of this study is to determine whether Compound (I) compared to placebo, improves the FEV1, as well as to provide comparative safety data from this population of asthmatics. Measurements made in this study will also be used to establish whether this treatment improves other variables related to asthma control and lung function.
# (§3) A phase II, double-blind, randomized, parallel-group, placebo-controlled multi-center study to investigate the effect of the adenosine A1 receptor antagonist Compound (I) on forced expiratory volume in 1 second (FEV1) in patients with mild-to-moderate persistent atopic asthma.
# The study comprises: (i) a minimum of 5-days screening period, during which the subject’s clinical stability and overall eligibility for the study will be assessed; (ii) a weaning phase where a stepwise tapering of the asthma medication will be done upon 7-day periods; (iii) the randomized, parallel-arm treatment period; and (iv) an end-of-study follow-up visit. The asthma medication weaning period comprises three possible visit pathways in order to adjust for each subject’s asthma therapy on study entry. The study comprises a primary analysis population of 58 stable asthmatic subjects managed as described for the objectives, who meet all inclusion criteria and no exclusion criteria and complete a full, valid data set for the primary variable.
# [4] = tested on: patients with mild-to-moderate persistent atopic asthma; experiment: Trough FEV1 (spirometry), phase II placebo-controlled study; assay type: in vivo, human; conditions: for FEV1 LS means difference vs Placebo, Eosinophils category High, Estimate (SE): eosinophils High at V1, p 0.0164; for FEV1 LS means difference vs Placebo, Eosinophils category Low, Estimate (SE): eosinophils Low at V1, p 0.7778
# Protocol: as §1
# (§4) FEV1. Briefly. Spirometry measurements will be performed using spirometry equipment which meets or exceeds the minimal performance recommendations of the ATS/ERS standards (Miller M. R et al, Standardisation of spirometry, Eur Respir J 2005; 26: 319-338). Calibration and quality control should be performed before the site initiation: • a. A 3L syringe will be used to verify spirometer accuracy. • b. The accuracy of the syringe should be certified within the last 12 months and should have an accuracy of ± 15 ml. • c. Before use, the syringe should be maintained at the same temperature as the spirometer to ensure volume stability. • d. For volume-type spirometers, a calibration and leak check must be performed before each testing session according to the manufacturer’s guidelines. A calibration report stored in the site’s source documents is required to confirm the adherence to guidelines. Example of spirometry equipment used in the trial: Jaeger and ERT Spirosphere.
# as §2, §3
# (§5) Secondary objectives include determinations of FEV1 area under the curve (AUC), evaluations on pre- and post- bronchodilator FEV1, and patient reported outcomes (PROs) including Asthma Control Questionnaire-7 (ACQ-7) and Standardized Asthma Quality of Life Questionnaire (AQLQ(S)).
# A mixed model with FEV1 measurements on day 16 (23 h 15 min and 23h 45 min post-dose), containing treatment arm as a fixed effect, site as random effect with baseline FEV1 on visit V5 as a covariate was fitted. The treatment effect was larger for Compound (l) group compared to placebo, increasing the FEV1 on 180 mL (p= 0.0816).
# FEV1: forced expiratory volume in 1 second; SD: standard deviation; SE: standard error; min: minimum; max: maximum; LS: least squares; Cl: confidence interval. Trough FEV1 on day 16 (+4-day leeway), defined as the average of the FEV1 measurements taken at 23 h15 min and 23 h45 min post-dose.
# [5] = tested on: patients with mild-to-moderate persistent atopic asthma; experiment: FEV1 AUC30min-23h30min post-dose, phase II study; assay type: in vivo, human
# Text: as §4, §5
# [6] = tested on: patients with mild-to-moderate persistent atopic asthma; experiment: Asthma Control Questionnaire-7 (ACQ-7), phase II study; assay type: in vivo, human; conditions: mixed model, days 8 and 15, effect: treatment; p 0.0430
# Text: as §5
# Table 7 and FIG. 5. Similar trend was observed when comparing Visit and Study Arm* Visit as covariate.
# [7] = tested on: allergic/atopic asthmatics; experiment: Safety / adverse events, phase II study; assay type: in vivo, human; conditions: safety population
# Protocol: as §2
# Of the 107 subjects who were screened, 63 (58.9%) met eligibility criteria and were randomized. Of the 63 patients who were randomized, 63 (100%) completed the study (32 and 31 in the Compound (l) and placebo groups, respectively). There were not adverse events for discontinuation. The safety population included 63 (placebo: n=31 and Compound (l): n=32). Results are based on the per protocol population (placebo: n= 27 and Compound (l): n= 31).
# The data highlight the potential of the adenosine A1 receptor antagonist Compound (l) as a promising oral asthma therapy. The safety set included all randomized patients who received at least one dose of any study drug.
# COPD patients [8] = conditions: raised baseline eosinophils; cited from earlier work
# [9] = change from baseline, 10 mg, N=31
molecule,measurement,setting,value
O=C(Nc1c(Cl)cncc1Cl)c1ccc(OC(F)F)c(OCC2CC2)c1 [Roflumilast],bronchoalveolar lavage fluid (BALF) eosinophilia,Brown Norway rats,inhibited
same,LPS-induced circulating TNFalpha,TNFalpha,abrogated
same,blood eosinophils,[1],not in the blood eosinophils
same,eosinophils in sputum and bronchial biopsy samples,[1],significant reduction
"benralizumab: humanized, afucosylated, monoclonal antibody targeting the IL5-receptor α-chain","improvements in exacerbation rates, SGRQ-C, CRQ-SAS scores and FEV1",COPD patients [2],not statistically significant
"N#Cc1sc(NC(=O)[C@H]2CC[C@@H](C(=O)O)C2)nc1-c1ccccc1 [Compound (I), (1R,3S)-3-((5-cyano-4-phenylthiazol-2-yl)carbamoyl)cyclopentane-1-carboxylic acid]","Eosinophilic Count on Visit V7 (day 15), Mean","[3]; 15 days, per protocol population, N=30, baseline mean 392.9",218 cel/ µL
same,"Eosinophilic Count on Visit V7 (day 15), Median","[3]; 15 days, per protocol population, N=30, baseline median 370.0",150.0 cel/ µL
same,"Eosinophilic Count, Absolute Change from Baseline, Mean difference vs Placebo (90% Cl)",[3]; day 15,"-233.9 (-Inf, -174.6) cel/ µL"
same,"Eosinophilic Count, Relative Change from Baseline, Mean difference vs Placebo (90% Cl)","[3]; day 15, p-value <0.0001","-68.0 (-Inf, -51.95)"
same,"Eosinophilic Count, Absolute Change from Baseline, Mean",[3]; day 15 vs visit V5,-184.7 cel/ µL
same,"Eosinophilic Count, Absolute Change from Baseline, Median",[3]; day 15 vs visit V5,-195.0 cel/ µL
same,"Eosinophilic Count, Relative Change from Baseline, Mean",[3]; day 15 vs visit V5,-46.8
same,"Eosinophilic Count, Relative Change from Baseline, Median",[3]; day 15 vs visit V5,-64.9
same,increase of trough FEV1,[4],110 to 200 mL
same,"Trough FEV1 day 16 (+4-day leeway), LS mean","[4]; 10 mg once daily 15 days, N=31, baseline mean 2.7",3.1 L
same,"Trough FEV1 day 16 (+4-day leeway), LS mean difference vs. Placebo","[4]; 10 mg once daily 15 days, p 0.0816",0.18 L
same,"FEV1 LS means difference vs Placebo, Eosinophils category High, Estimate (SE)",[4],0.38 L
same,"FEV1 LS means difference vs Placebo, Eosinophils category High, Estimate (SE)",[4]; listed as COMPOUND (I),0.38 (0.15) L
same,"FEV1 LS means difference vs Placebo, Eosinophils category Low, Estimate (SE)",[4],0.04 L
same,"FEV1 LS means difference vs Placebo, Eosinophils category Low, Estimate (SE)",[4]; listed as COMPOUND (I),0.04 (0.15) L
same,"FEV1 LS means differences in study arm vs Placebo, Estimate (SE)","[4]; mixed model with eosinophils strata, p 0.0596",0.21 (0.11) L
same,"FEV1 LS means, Estimate (SE), Eosinophils category High","[4]; mixed model, trough FEV1 day 16, eosinophils High at visit V1, per protocol",3.06 (0.11) L
same,"FEV1 LS means, Estimate (SE), Eosinophils category Low","[4]; mixed model, trough FEV1 day 16, eosinophils Low at visit V1, per protocol",3.04 (0.12) L
same,"treatment effect, increase of FEV1 compared to placebo","[4]; trough FEV1 day 16, mixed model, p= 0.0816",180 mL
same,"FEV1 AUC30min-23h30min post-dose through days 15-to-16, Mean",[5]; [9],4.9
same,"FEV1 AUC30min-23h30min post-dose through days 15-to-16, Median",[5]; [9],5.7
same,"FEV1 AUC30min-23h30min post-dose through days 15-to-16, Mean difference vs Placebo (90% Cl)",[5]; p 0.0435,3.6 (0.96)
same,"ACQ-7 overall score, Mean difference vs Placebo (90% Cl)",[6],-0.28
same,serious adverse events,[7]; 10 mg once daily 15 days,no serious AEs reported
same,severity of most adverse events,[7]; both groups,mild/moderate
B1,sputum and blood eosinophil counts compared with placebo,COPD patients [8],significantly reduced
